These results are taken from patent US6455585B1, “Esters derived from substituted phennyl-cyclohexyl compounds” (Vita Invest, S.A., priority 1998, dated 2002).

For data set [1], the system named is Male Swiss mice. Kind of data set: Determination of the DL50 (acute single dose oral toxicity). The conditions noted are these: oral single administration, 14 days observation. The format is in vivo. As for the experimental part: b) Determination of the DL50 in the Products.
(EUDRA/S/87/011, Single Dose Toxicity, European Directive 75/318/EEC) (ICH S4, Toxicity Studies, single dose and repeated dose, CPMP vol III Feb. 87, Single dose toxicity)
Male Swiss mice of the same batch weighing 20-25 g are used in order to estimate the acute toxicity of the products.
Prior to administering the products, the animals were forced to fast for 12 hours with no intake of food but free access to water. Several subgroups of 10 animals were randomly selected and orally given increasing doses of the products in single administration, after which they remained under observation for a period of 14 days with free access to water and food. Finally, the number of dead animals of each subgroup was quantified and the value of the DL50 was calculated (1-2).

Data set [2] concerns Male Swiss mice. Kind of data set: Hot plate method, analgesic activity in mice. Type of data set: in vivo. The conditions noted are these: for % response time increase on hot plate: 20 μmol/kg, oral adm., n = 20-40; for change in vivo at 15 mg/kg: Mus musculus, ip, 0.5 h, hot plate test, intraperitoneal adm., n = 20, read-out: % response time increase. As for the experimental part:
The pharmacological activity of the products of the present invention was tested in vivo in several experimental models, which are known to evaluate the pain in animals.
The method that was used is described by Eddy N. B. and Leimbach D. (J. Pharm. Exp. Ther. 107: 385-393, 1953). The analgesic effect of the products was evaluated analysing the behaviour of the animals on a hot surface at 55° C.±1° C.
Male Swiss mice weighing 20-25 g were used. The compounds being tested were administered orally or intraperitoneally 1 hour o 30 minutes before starting the test, respectively.
The process consisted of placing the animals on the plate and keeping them in a Plexiglas cylinder 25 cm high and 21 cm […]. The time the animals took to jump off the hot surface was determined. The animals were selected before starting the test so that those that took longer than 10 seconds to jump off were not included in the group that would receive treatment.
30 minutes after administering the product being tested, the test was repeated and the maximum time it took the animals to jump off was again recorded.
The results are expressed as the […] of jump time increase calculated as follows: [formula]
In order to determine the duration of the analgesic effect of the orally administered products, the analgesic activity was evaluated on the hot plate 1, 3, 6, 8, and 24 hours after the administration of the product, as well as the control group which received treatment only with the vehicle. The base responses were evaluated at 30 and 5 minutes prior to administering the products.
(In hot-plate and tail-flick tests a longer latency is read as antinociception.)

As for `CN(C)CC1CCCCC1(O)c1cccc(OC(=O)c2ccccc2O)c1` (stereo not drawn) [EXAMPLE 6, 3-(2-Dimethylaminomethyl-1-hydroxy-cyclohexyl)-phenyl (RR-SS)-2-hydroxybenzoate], the “DL50 approx. Oral adm.” value with Male Swiss mice [1] is roughly 550 mg/kg. For the same compound, in the data set on Male Swiss mice [2], the “% response time increase on hot plate” value is reported as 248 ± 72% and the change in vivo at 15 mg/kg was 546 ± 63%.
Regarding `CC(C)Cc1ccc(C(C)C(=O)Oc2cccc(C3(O)CCCCC3CN(C)C)c2)cc1` (stereo not drawn) [EXAMPLE 1, 3-(2-Dimethylaminomethyl-1-hydroxycyclohexyl)-phenyl 2-(4-Isobutyl-phenyl)-propionate], the “DL50 approx. Oral adm.” value with Male Swiss mice [1] was roughly 900 mg/kg. Moreover, in the data set with Male Swiss mice [2], the “% response time increase on hot plate” value amounted to 210 ± 88% and the change in vivo at 15 mg/kg was 568 ± 100%.
As to `COc1ccc2cc(C(C)C(=O)Oc3cccc(C4(O)CCCCC4CN(C)C)c3)ccc2c1` (stereo not drawn) [EXAMPLE 2, 3-(2-Dimethylaminomethyl-1-hydroxyyclohexyl)-phenyl 2-(6-Methoxy-naphthalen-2-yl)-propionate], the change in vivo at 15 mg/kg with Male Swiss mice [2] is 539 ± 50%.
Still for that read-out and setting: with `CN(C)CC1CCCCC1(O)c1cccc(OC(=O)C2CCn3c(C(=O)c4ccccc4)ccc32)c1` (stereo not drawn) [EXAMPLE 3, 3-(2-Dimethylaminomethyl-1-hydroxycyclohexyl)-phenyl 5-Benzoyl-2,3-dihydro-1H-pyrrolizine-1-carboxylate] the figure was 416 ± 146%; with `CN(C)CC1CCCCC1(O)c1cccc(OC(=O)c2ccccc2OC(=O)N(C)C)c1` (stereo not drawn) [EXAMPLE 8, 3-(2-Dimethylaminomethyl-1-hydroxy-cyclohexyl)-phenyl (RR-SS)-2-dimethylcarbamoyloxy-benzoate], 327 ± 65%.
On the same count and under the same terms, next, `CN(C)CC1=C(c2cccc(OC(=O)c3ccccc3O)c2)CCCC1` [EXAMPLE 7, 3-(2-Dimethylaminomethyl-cyclohex-1-enyl)-phenyl 2-Hydroxybenzoate]: 634 ± 42%.
Turning to `COc1cccc(C2(O)CCCCC2CN(C)C)c1` (single isomer, unassigned) [Tramadol, (1R, 2R or 1S, 2S)-2-[(dimethylamino)methyl]-1-(3-methoxyphenyl) cyclohexanol, reference compound], the “DL50 approx. Oral adm.” value with Male Swiss mice [1] is roughly 350 mg/kg. Moreover, in the data set with Male Swiss mice [2], the “% response time increase on hot plate” value amounted to 87 ± 23% and the change in vivo at 15 mg/kg was 218 ± 98%.
Regarding `COc1ccc2cc(C(C)C(=O)Oc3cccc(C4=C(CN(C)C)CCCC4)c3)ccc2c1` (stereo not drawn) [EXAMPLE 5, 3-(2-Dimethylaminomethyl-cyclohex-1-enyl)-phenyl 2-(6-Methoxy-naphthalen-2-yl)-propionate], the change in vivo at 15 mg/kg with Male Swiss mice [2] is 356 ± 151%.
Still for that read-out and setting: with `CC(C)Cc1ccc(C(C)C(=O)Oc2cccc(C3=C(CN(C)C)CCCC3)c2)cc1` (stereo not drawn) [EXAMPLE 4, 3-(2-Dimethylaminomethyl-cyclohex-1-enyl)-phenyl 2-(4-Isobutyl-phenyl)-propionate] the figure was 333 ± 134%.
